Measured values reported in patent US20030064936A1 (priority 2001, published 2003).

Tests used:
[1] = target: recombinant ceramidase from Pseudomonas aeruginosa PA01 (Pseudomonas aeruginosa, UniProt Q9I596); assay: Inhibition of recombinant Pseudomonas aeruginosa PA01 ceramidase, quenched fluorescent ceramide analog substrate; assay type: biochemical; conditions: for capability of inhibiting Pseudomonas aeruginosa ceramidase: known human ceramidase inhibitors, various concentrations, assay buffer containing 20 μM of substrate; for ceramidase inhibition ability, comparison in words: comparison among examples 1-9
Chain of recombinant ceramidase from Pseudomonas aeruginosa PA01 (Q9I596 25-670): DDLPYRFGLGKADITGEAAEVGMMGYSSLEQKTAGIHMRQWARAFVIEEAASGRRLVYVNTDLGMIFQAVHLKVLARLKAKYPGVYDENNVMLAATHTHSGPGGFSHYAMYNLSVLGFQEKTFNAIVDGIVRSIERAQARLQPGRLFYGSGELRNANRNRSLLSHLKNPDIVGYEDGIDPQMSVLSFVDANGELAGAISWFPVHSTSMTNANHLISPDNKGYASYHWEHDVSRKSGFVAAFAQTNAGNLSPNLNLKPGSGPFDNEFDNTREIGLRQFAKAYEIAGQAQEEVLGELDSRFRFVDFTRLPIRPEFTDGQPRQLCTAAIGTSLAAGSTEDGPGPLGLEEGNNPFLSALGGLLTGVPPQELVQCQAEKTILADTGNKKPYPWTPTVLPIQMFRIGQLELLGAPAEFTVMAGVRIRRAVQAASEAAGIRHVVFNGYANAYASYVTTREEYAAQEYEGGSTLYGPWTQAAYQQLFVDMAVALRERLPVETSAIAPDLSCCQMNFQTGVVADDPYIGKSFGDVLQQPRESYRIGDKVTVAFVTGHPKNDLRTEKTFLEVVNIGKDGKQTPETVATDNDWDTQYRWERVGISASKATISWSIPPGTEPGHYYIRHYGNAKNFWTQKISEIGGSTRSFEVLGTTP
Procedure: The effect of various active compounds on the enzymatic activity of recombinant ceramidase from Pseudomonas aeruginosa PA01 was tested.
The assays were performed at 25° C., with magnetic stirring, using Photo Technology International fluorimeter equipped with a LPS 220 Lamp Power Supply, a 810 Photomultiplier Detector System, a MD 5020 Motor Driver, and a Dell Dimensions M166a computer with FELIX® software. Excitation was done at 346 nm (±2 nm) and the emission was measured at 378 nm (±2 nm).The assay buffer consisted of 50 mM Tris/HCl, 4 mM CaCl2, 0.1% w/v Triton X-100, pH 8.5.
The active compounds were dissolved in DMF (dimethylformamide) to a concentration of 4 mM. Of these solutions, 250 μliter was added to 50 milliliter assay buffer under vortex, yielding 20 μM lipid solutions.
To 1 mL of the lipid solution in a cuvet, 5 μL of quenched fluorescent ceramide analog as a substrate was added (end concentration 2 μM) and the system was allowed to equilibrate for 5 minutes. Then 5 μL of recombinant ceramidase was added (end concentration 4.3 nM). The reaction was allowed to proceed for 20 minutes. The slope at 378 nm was used to determine the reaction rate.
Control experiments were done in the absence of sphingolipids, with corresponding amounts of DMF (0.5% v/v for the 20 μM samples). The reaction rate of the controls was set at 100%. The percentages in the table are given as % of inhibition (control value—reaction rate of the sample).
The potential of several known human ceramidase inhibiting compounds of inhibiting Pseudomonas aeruginosa PA01 ceramidase was tested at various concentrations, in the assay buffer containing 20 μM of substrate.
The potential of several ceramide and sphingoid bases of inhibiting Pseudomonas aeruginosa PA01 ceramidase was tested at a pH of 8.5, using respectively, 2 μM and 20 μM of ceramidase substrate, 1.6 mM Triton X-100 and 4 mM of CaCl2.

[2] = target: T1, human alkaline ceramidase (aPHC) (Homo sapiens, UniProt Q9NUN7); conditions: in vitro and in cells; cited from earlier work
T1 construct: host or cells: yeast mutant strain (as cited)
T1 sequence (Q9NUN7 1-267): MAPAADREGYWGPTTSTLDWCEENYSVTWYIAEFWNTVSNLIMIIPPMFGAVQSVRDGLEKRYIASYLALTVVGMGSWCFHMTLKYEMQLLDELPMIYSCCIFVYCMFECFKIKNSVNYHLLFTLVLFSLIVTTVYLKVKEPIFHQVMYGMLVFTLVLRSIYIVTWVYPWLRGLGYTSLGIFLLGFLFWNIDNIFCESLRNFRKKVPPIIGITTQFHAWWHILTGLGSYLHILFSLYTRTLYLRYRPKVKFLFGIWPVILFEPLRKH

[3] = tested on: ceramidase originating from guinea pig epidermis; conditions: in vitro; cited from earlier work
[4] = target: T2, ceramidase originating from mitochondria of rat brain (Rattus norvegicus, UniProt Q91XT9); conditions: cited from earlier work
T2 construct: host or cells: rat brain mitochondria
T2 sequence (Q91XT9 whole entry): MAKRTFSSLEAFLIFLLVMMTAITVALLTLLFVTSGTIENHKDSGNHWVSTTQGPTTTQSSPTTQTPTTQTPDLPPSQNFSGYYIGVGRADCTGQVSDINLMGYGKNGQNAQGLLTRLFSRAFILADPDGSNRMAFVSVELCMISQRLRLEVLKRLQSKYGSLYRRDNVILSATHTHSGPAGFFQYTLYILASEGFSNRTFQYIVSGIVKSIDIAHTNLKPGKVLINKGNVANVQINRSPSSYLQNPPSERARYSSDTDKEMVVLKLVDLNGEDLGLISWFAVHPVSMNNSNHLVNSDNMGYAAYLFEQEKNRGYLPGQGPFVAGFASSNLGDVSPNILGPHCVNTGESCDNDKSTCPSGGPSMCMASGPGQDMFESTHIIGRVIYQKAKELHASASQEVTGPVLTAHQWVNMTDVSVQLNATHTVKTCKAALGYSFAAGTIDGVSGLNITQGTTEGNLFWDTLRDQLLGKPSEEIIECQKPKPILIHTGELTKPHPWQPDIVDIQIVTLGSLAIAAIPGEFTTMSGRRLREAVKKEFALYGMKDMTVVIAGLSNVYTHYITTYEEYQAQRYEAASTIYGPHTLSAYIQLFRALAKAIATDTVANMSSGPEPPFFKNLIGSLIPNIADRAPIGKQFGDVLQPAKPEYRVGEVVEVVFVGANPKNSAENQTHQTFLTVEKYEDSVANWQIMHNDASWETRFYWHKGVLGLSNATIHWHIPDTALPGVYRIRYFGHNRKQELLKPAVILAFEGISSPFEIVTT

[5] = 20 μM active compound, pH 8.5, 25° C., 4 mM CaCl2, Triton X-100, control rate = 100%

Row | SMILES | capability of inhibiting Pseudomonas aeruginosa ceramidase [1] | % of inhibition [1, 5] [%] | other results
1 | C[C@@H](N)[C@@H](O)c1ccccc1 [D(+)-norephenidrin, reference compound] | None of these compounds was found capable of inhibiting | – | –
2 | CCCCCCCCCCCCC/C=C/[C@@H](O)[C@@H](N)CO [D—erythro—sphingosine] | – | 97 | ceramidase inhibition ability, comparison in words [1]: highest ceramidase inhibition ability
3 | CCCCCCCCCCCCCC[C@@H](O)[C@@H](O)[C@H](CO)NC(C)=O [N—acetyl—phytosphingosine] | – | 9 | –
4 | CCCCCCCCCCCCC/C=C/[C@@H](O)[C@@H](N)CO [sphingosine] | – | – | inhibition of human alkaline ceramidase [2]: inhibited by sphingosine; inhibition of ceramidase [3]: inhibiting ceramidase; inhibition of ceramidase [4]: capable of inhibiting ceramidase
5 | CCCCCCCC/C=C\CCCCCCCC(=O)NCCO [N-oleoylethanolamine, reference compound] | None of these compounds was found capable of inhibiting | – | –
6 | CCCCCCCCCCCCCC(=O)N[C@@H](C)[C@H](O)c1ccccc1 [L-erythro-MAPP, reference compound] | None of these compounds was found capable of inhibiting | – | –
7 | C[C@H](N)[C@H](O)c1ccccc1 [L(−)-norephenidrin, reference compound] | None of these compounds was found capable of inhibiting | – | –
8 | CCCCCCCCCCCCCC[C@@H](O)[C@@H](O)[C@H](CO)NC(C)=O [MAPS, N-monoacetyl phytosphingosine] | – | 35 | –
9 | CCCCCCCCCCCCC/C=C/[C@H](O)[C@H](N)CO [L—erythro—sphingosine] | – | 20 | –
10 | CCCCCCCCCCCCCC[C@@H](O)[C@@H](O)[C@@H](N)CO [Phytosphingosine] | – | – | inhibition at 2 µM ([1]; pH 8.5, 2 μM active compound, pH 8.5, 25° C., 4 mM CaCl2, Triton X-100, control rate = 100%): 7.5%; inhibition at 20 µM ([1]; pH 8.5, read-out: % of inhibition, 20 μM active compound, pH 8.5, 25° C., 4 mM CaCl2, Triton X-100, control rate = 100%): 60%
11 | CCCCCCCCCCCCCCC(OC(C)=O)C(OC(C)=O)C(COC(C)=O)NC(C)=O (stereo not drawn) [TAPS, tetraacetyl-phytosphingosine] | – | 22 | –
12 | CCCCCCCCCCCCCCC[C@H](O)[C@H](N)CO [D/L sphinganine] | – | 83 | –
13 | CCCCCCCCCCCCCC(=O)N[C@H](C)[C@@H](O)c1ccccc1 [D-erytro-MAPP, (1S,2R)-D-erythro-2-(N-myristoylamino)-1-phenyl-1-propanol, reference compound] | None of these compounds was found capable of inhibiting | – | –
14 | CCCCCCCCCCCCCCCCC(O)C(=O)N[C@@H](CO)[C@H](O)[C@H](O)CCCCCCCCCCCCCC (stereo partly drawn) [Ceramide VI] | – | 11 | –
15 | CCCCCCCCCCCCCC[C@@H](O)[C@@H](O)[C@@H](N)CO.Cl [Phytosphingosine.HCl] | – | 67 | % of inhibition ([1]; 2 μM active compound, pH 8.5, 25° C., 4 mM CaCl2, Triton X-100, control rate = 100%): 15%; ceramidase inhibition ability, comparison in words [1]: better ceramidase inhibiting effect than phytosphingosine
